Measured values from the RepoRT retention time repository.

Assay: HILIC, Waters ACQUITY UPLC BEH Amide, 100 × 2.1 mm, 1.7 µm; A: water + 0.125% formic acid + 10 mM ammonium formate; B: 5% water + 95% acetonitrile + 0.125% formic acid + 10 mM ammonium formate; gradient (min/%B) 0/100 2/100 7.7/70 9.5/40 10.25/30 12.75/100 17/100
Conditions: stereoisomer not certain

SMILES	LC retention time
NCCC(=O)NC(Cc1cnc[nH]1)C(=O)O (stereo unspecified) [Carnosine]	9.54 min
NC(C(=O)NC1C(=O)N2C(C(=O)O)=C(CSc3cn[nH]n3)CSC12)c1ccc(O)cc1 (stereo unspecified) [Cefatrizine]	7.98 min
C=CC1=C(C(=O)O)N2C(=O)C(NC(=O)C(=NO)c3csc(N)n3)C2SC1 (stereo unspecified) [Cefdinir]	6.94 min
C=CC1=C(C(=O)O)N2C(=O)C(NC(=O)C(=NOCC(=O)O)c3csc(N)n3)C2SC1 (stereo unspecified) [Cefixime]	7.79 min
COCc1c(C(C)C)nc(C(C)C)c(C=CC(O)CC(O)CC(=O)O)c1-c1ccc(F)cc1 (stereo unspecified) [Cerivastatin]	1.18 min
CN=C1CN(O)C(c2ccccc2)=c2cc(Cl)ccc2=N1 [Chlordiazepoxide]	1.35 min
O=C(C=Cc1ccc(O)c(O)c1)OC1CC(O)(C(=O)O)CC(O)C1O (stereo unspecified) [Chlorogenic acid]	6.68 min
CN(C)CCC(c1ccc(Cl)cc1)c1ccccn1 (stereo unspecified) [Chlorpheniramine]	2.54 min
O=CC=Cc1ccccc1 [Cinnamaldehyde]	9.18 min
COc1cc(N)c(Cl)cc1C(=O)NC1CCN(CCCOc2ccc(F)cc2)CC1OC (stereo unspecified) [Cisapride]	2.28 min
NC(=O)NCCCC(N)C(=O)O (stereo unspecified) [Citrulline]	8.74 min
CCC1OC(=O)C(C)C(OC2CC(C)(OC)C(O)C(C)O2)C(C)C(OC2OC(C)CC(N(C)C)C2O)C(C)(OC)CC(C)C(=O)C(C)C(O)C1(C)O (stereo unspecified) [Clarithromycin]	3 min
CN1C(=O)CC(=O)N(c2ccccc2)c2cc(Cl)ccc21 [Clobazam]	1.1 min
NC(=NCc1ccc(Cl)cc1)SCCCc1cnc[nH]1 [Clobenpropit]	6.13 min
CCOC(=O)C1C(OC(=O)c2ccccc2)CC2CCC1N2C (stereo unspecified) [Cocaethylene]	2.12 min
COC(=O)C1C(OC(=O)c2ccccc2)CC2CCC1N2C (stereo unspecified) [Cocaine]	2.2 min
COc1cc(C=CC=O)ccc1O [Coniferylaldehyde]	1.14 min
COc1cc2c(cc1OC)C1C(C)c3ccc(OC)c(OC)c3CN1CC2 (stereo unspecified) [Corydaline]	1.52 min
CN1CC(=O)NC1=N [Creatinine]	4.93 min
CC(C)CC1NC(=O)C2CCCN2C1=O (stereo unspecified) [Cyclo(Leu-Pro)]	1.29 min
NC(CCSCC(N)C(=O)O)C(=O)O (stereo unspecified) [Cystathionine]	9.91 min
Nc1ccnc(=O)[nH]1 [Cytosine]	5.9 min
O=c1c(-c2ccc(O)cc2)coc2cc(O)ccc12 [Daidzein]	1.39 min
CC12CCC3C(CC=C4CC(O)CCC43C)C1CCC2=O (stereo unspecified) [Dehydroepiandrosterone]	1.03 min
CC1CC2C3CCC4=CC(=O)C=CC4(C)C3(F)C(O)CC2(C)C1C(=O)CO (stereo unspecified) [Desoximetasone]	1.13 min
COc1ccc2c(c1)C13CCCCC1C(C2)N(C)CC3 (stereo unspecified) [Dextromethorphan]	2.64 min

SMILES	LC retention time
CN1CCC23CCCCC2C1Cc1ccc(O)cc13 (stereo unspecified) [Dextrorphan]	3.87 min
CN1C(=O)CN=C(c2ccccc2)c2cc(Cl)ccc21 [Diazepam]	1.1 min
O=C(O)Cc1ccccc1Nc1c(Cl)cccc1Cl [Diclofenac]	1.08 min
COc1cc(CNC(=O)CCCCCCC(C)C)ccc1O [Dihydrocapsaicin]	1.07 min
CCCCCCCCCCCCCCCC(O)C(N)CO (stereo unspecified) [Dihydrosphingosine]	4.47 min
COC(=O)c1ccccc1C(=O)OC [Dimethyl phthalate]	1.04 min
CCCCCCCCOC(=O)c1ccccc1C(=O)OCCCCCCCC [Dioctyl Phthalate]	0.96 min
CN(C)CCOC(c1ccccc1)c1ccccc1 [Diphenhydramine]	2.15 min
CCOC(=O)C1(c2ccccc2)CCN(CCC(C#N)(c2ccccc2)c2ccccc2)CC1 [Diphenoxylate]	1.41 min
O=c1c(-c2ccccc2)c1-c1ccccc1 [Diphenylcyclopropenone]	1.01 min
CCN(CC)C(=S)SSC(=S)N(CC)CC [Disulfiram]	0.93 min
CN(CCOc1ccc(NS(C)(=O)=O)cc1)CCc1ccc(NS(C)(=O)=O)cc1 [Dofetilide]	3.38 min
O=C(OC1CC2CC3CC(C1)N2CC3=O)c1c[nH]c2ccccc12 (stereo unspecified) [Dolasetron]	1.9 min
NCCc1ccc(O)c(O)c1 [Dopamine]	6.4 min
CCN1CC(CCN2CCOCC2)C(c2ccccc2)(c2ccccc2)C1=O (stereo unspecified) [Doxapram]	1.64 min
CN(C)CCC=C1c2ccccc2COc2ccccc21 [Doxepin]	2.26 min
CN(C)CCOC(C)(c1ccccc1)c1ccccn1 (stereo unspecified) [Doxylamine]	2.45 min
O=C(CCCN1CC=C(n2c(=O)[nH]c3ccccc32)CC1)c1ccc(F)cc1 [Droperidol]	3.48 min
CC=C1N(C)C(C)CC1(c1ccccc1)c1ccccc1 (stereo unspecified) [EDDP]	1.9 min
COC(=O)C1C(O)CC2CCC1N2C (stereo unspecified) [Ecgonine methylester]	4.18 min
CN1C2CCC1C(C(=O)O)C(O)C2 (stereo unspecified) [Ecgonine]	7.61 min
O=C1Nc2ccc(Cl)cc2C(C#CC2CC2)(C(F)(F)F)O1 (stereo unspecified) [Efavirenz]	0.98 min
CC(NC(CCc1ccccc1)C(=O)O)C(=O)N1CCCC1C(=O)O (stereo unspecified) [Enalaprilat]	7.07 min
CCN1CCN(c2cc3c(cc2F)c(=O)c(C(=O)O)cn3C2CC2)CC1 [Enrofloxacin]	3.31 min
Oc1cc(O)c2c(c1)OC(c1cc(O)c(O)c(O)c1)C(O)C2 (stereo unspecified) [Epigallocatechin]	10.2 min

Second part, the compound after the results:

LC retention time	SMILES
3.17 min	COc1ccccc1OCCNCC(O)COc1cccc2[nH]c3ccccc3c12 (stereo unspecified) [Carvedilol]
5.61 min	NC(C(=O)NC1C(=O)N2C(C(=O)O)=C(Cl)CSC12)c1ccccc1 (stereo unspecified) [Cefaclor]
5.29 min	NCC1CCC(C(=O)Oc2ccc(CCC(=O)O)cc2)CC1 (stereo unspecified) [Cetraxate]
5.18 min	C[N+](C)(C)CCO [Choline [M]+]
7.63 min	CC1(C)CC1C(=O)NC(=CCCCCSCC(N)C(=O)O)C(=O)O (stereo unspecified) [Cilastatin]
2.61 min	CN(C)CCCSc1ccccc1NC(=O)C=Cc1ccccc1 [Cinanserin]
1.95 min	Nc1nc(Cl)nc2c1ncn2C1CC(O)C(CO)O1 (stereo unspecified) [Cladribine]
1.78 min	CC(C)N=c1cc2n(-c3ccc(Cl)cc3)c3ccccc3nc-2cc1Nc1ccc(Cl)cc1 [Clofazimine]
2.31 min	CN(C)CCCN1c2ccccc2CCc2ccc(Cl)cc21 [Clomipramine]
2.85 min	Clc1cccc(Cl)c1NC1=NCCN1 [Clonidine]
3.54 min	Nc1ncnc2c1ncn2C1OC(CO)CC1O (stereo unspecified) [Cordycepin]
1.25 min	CC12CCC(=O)C=C1CCC1C2C(O)CC2(C)C(C(=O)CO)CCC12 (stereo unspecified) [Corticosterone]
1.29 min	CC12CCC(=O)C=C1CCC1C2C(=O)CC2(C)C1CCC2(O)C(=O)CO (stereo unspecified) [Cortisone]
1.15 min	CC12CCC(=O)C=C1CCC1C2CCC2(C)C1CCC2(O)C(=O)CO (stereo unspecified) [Cortodoxone]
1.49 min	CN1C(=O)CCC1c1cccnc1 (stereo unspecified) [Cotinine]
1.08 min	O=c1ccc2ccccc2o1 [Coumarin]
8.15 min	CN(CC(=O)O)C(=N)N [Creatine]
0.97 min	CC=CC(=O)N(CC)c1ccccc1C [Crotamiton]
5.1 min	NC1CCCCC1 [Cyclohexanamine]
2.31 min	CN1CCC(=C2c3ccccc3C=Cc3ccccc32)CC1 [Cyproheptadine]

LC retention time	SMILES
8.92 min	NC(CS(=O)(=O)O)C(=O)O (stereo unspecified) [Cysteic acid]
5.31 min	NC(CS)C(=O)O (stereo unspecified) [Cysteine]
9.97 min	NC(CSSCC(N)C(=O)O)C(=O)O (stereo unspecified) [Cystine]
9.48 min	Nc1ccn(C2OC(COP(=O)(O)O)C(O)C2O)c(=O)n1 (stereo unspecified) [Cytidine-5'-monophosphate]
2.17 min	CCCCCCCCCC=O [Decanal]
1.16 min	CC(CCC(=O)O)C1CCC2C3C(=O)CC4CC(=O)CCC4(C)C3CC(=O)C12C (stereo unspecified) [Dehydrocholic acid]
8.25 min	O=c1ccn(C2CC(O)C(COP(=O)(O)O)O2)c(=O)[nH]1 (stereo unspecified) [Deoxyuridine monophosphate]
4.9 min	Clc1ccc2c(c1)CCc1cccnc1C2=C1CCNCC1 [Desloratadine]
6.61 min	CS(=O)CCCCC(=NO)SC1OC(CO)C(O)C(O)C1O (stereo unspecified) [Desulfo Glucoraphanin]
2.56 min	CN(C)CCC(c1ccc(Br)cc1)c1ccccn1 (stereo unspecified) [Dexbrompheniramine]
1.09 min	CC1=NS(=O)(=O)c2cc(Cl)ccc2N1 [Diazoxide]
2.99 min	CC(CO)CCNc1ncnc2nc[nH]c12 (stereo unspecified) [Dihydrozeatin]
1.34 min	CC(=O)OC12COC1CC(O)C1(C)C(=O)C(O)C3=C(C)C(OC(=O)C(O)C(NC(=O)OC(C)(C)C)c4ccccc4)CC(O)(C(OC(=O)c4ccccc4)C21)C3(C)C (stereo unspecified) [Docetaxel]
2.44 min	COc1cc2c(cc1OC)C(=O)C(CC1CCN(Cc3ccccc3)CC1)C2 (stereo unspecified) [Donepezil]
2.6 min	CNCCC(Oc1cccc2ccccc12)c1cccs1 (stereo unspecified) [Duloxetine]
1.19 min	Oc1ccc(C2COc3cc(O)ccc3C2)cc1 (stereo unspecified) [Equol]
1.43 min	CC(C)C(C)C=CC(C)C1CCC2C3=CC=C4CC(O)CCC4(C)C3CCC21C (stereo unspecified) [Ergosterol]
7.74 min	C[N+](C)(C)C(Cc1c[nH]c(=S)[nH]1)C(=O)[O-] (stereo unspecified) [Ergothioneine]
1.06 min	CCCCCCCCC=CCCCCCCCCCCCC(N)=O [Erucamide]
3.13 min	COC(=O)CCc1ccc(OCC(O)CNC(C)C)cc1 (stereo unspecified) [Esmolol]
